Marks after values point to notes of the source that are not given here.
Key:
Type in all cases: in vivo
[1] = tested on: Blumeria graminis f. sp. tritici (also known as Erysiphe graminis f. sp. tritici, the causal agent of wheat powdery mildew); assay: Test D: wheat powdery mildew, preventive spray on wheat seedlings, visual disease rating; conditions: for Test D rating (100 = 100% disease control, 0 = no disease control relative to the controls): wheat powdery mildew, preventive spray on wheat seedlings
Description: (§1) General protocol for preparing test suspensions for Tests A-D: the test compounds were first dissolved in acetone in an amount equal to 3% of the final volume and then suspended at the desired concentration (in ppm) in acetone and purified water (50/50 mix by volume) containing 250 ppm of the surfactant Trem® 014 (polyhydric alcohol esters). The resulting test suspensions were then used in Tests A-D. Spraying a 200 ppm test suspension to the point of run-off on the test plants was the equivalent of a rate of 800 g/ha.
The test suspension was sprayed to the point of run-off on wheat seedlings. The following day the seedlings were inoculated with a spore dust of Blumeria graminis f. sp. tritici, (also known as Erysiphe graminis f. sp. tritici, the causal agent of wheat powdery mildew) and incubated in a growth chamber at 20° C. for 8 days, after which time visual disease ratings were made.
(§2) Results for Tests A-E are given in Table A. In the Table, a rating of 100 indicates 100% disease control and a rating of 0 indicates no disease control (relative to the controls). A dash (—) indicates no test results. An asterisk “*” next to the rating value indicates a 40 ppm test suspension was used.

[2] = tested on: Puccinia recondite f. sp. tritici (the causal agent of wheat leaf rust); assay: Test A: wheat leaf rust, preventive spray on wheat seedlings, visual disease rating; conditions: for Test A rating (100 = 100% disease control, 0 = no disease control relative to the controls): wheat leaf rust, preventive spray on wheat seedlings
Description: as §1
The test suspension was sprayed to the point of run-off on wheat seedlings. The following day the seedlings were inoculated with a spore suspension of Puccinia recondite f. sp. tritici (the causal agent of wheat leaf rust) and incubated in a saturated atmosphere at 20° C. for 24 h, and then moved to a growth chamber at 20° C. for 7 days, after which time visual disease ratings were made.
as §2

[3] = tested on: Septoria tritici (the causal agent of wheat leaf blotch); assay: Test B: wheat leaf blotch, preventive spray on wheat seedlings, visual disease rating; conditions: for Test B rating (100 = 100% disease control, 0 = no disease control relative to the controls): wheat leaf blotch, preventive spray on wheat seedlings
Description: as §1
(§3) The test suspension was sprayed to the point of run-off on wheat seedlings. The following day the seedlings were inoculated with a spore suspension of Septoria tritici (the causal agent of wheat leaf blotch) and incubated in a saturated atmosphere at 24° C. for 48 h, and then moved to a growth chamber at 20° C. for 19 days, after which time visual disease ratings were made.
as §2

[4] = tested on: Botrytis cinerea (the causal agent of tomato Botrytis); assay: Test C: tomato Botrytis, preventive spray on tomato seedlings, visual disease rating; conditions: for Test C rating (100 = 100% disease control, 0 = no disease control relative to the controls): tomato Botrytis, preventive spray on tomato seedlings
Description: as §1
as §3, with “tomato” for “wheat”, “Botrytis cinerea” for “Septoria tritici”, “tomato Botrytis)” for “wheat leaf blotch)”, “20°” for “24°”, “24°” for “20°”, “3” for “19”
as §2

[5] = asterisk: 40 ppm test suspension
[6] = no asterisk (standard test suspension concentration, not 40 ppm)
[7] = no asterisk: standard test suspension concentration, 100 = 100% disease control, 0 = no control relative to controls

| SMILES | Test D rating (100 = 100% disease control, 0 = no disease control relative to the controls) [1, 5] | Test A rating (100 = 100% disease control, 0 = no disease control relative to the controls) [2, 5] | Test B rating (100 = 100% disease control, 0 = no disease control relative to the controls) [3, 5] | Test C rating (100 = 100% disease control, 0 = no disease control relative to the controls) [4, 5] | Test D rating (100 = 100% disease control, 0 = no disease control relative to the controls) [1, 6] | Test A rating (100 = 100% disease control, 0 = no disease control relative to the controls) [2, 6] | Test B rating (100 = 100% disease control, 0 = no disease control relative to the controls) [3, 6] | Test C rating (100 = 100% disease control, 0 = no disease control relative to the controls) [4, 6] | further results |
| --- | --- | --- | --- | --- | --- | --- | --- | --- | --- |
| Cc1ccc(C(O)c2c(Cl)nc(C)n2-c2c(F)cccc2F)c(C)c1 (stereo not shown) [compound 191] | 99* % | 100* % | 100* % | 80* % |  |  |  |  |  |
| COc1cc(F)c(C(O)c2c(Cl)nc(C)n2-c2ccc(F)cc2Br)c(F)c1 (stereo not shown) [compound 325] | 92* % | 100* % | 98* % | 100* % |  |  |  |  |  |
| OC(c1c(F)ccc(Br)c1Cl)c1c(Cl)nc(Cl)n1-c1ccc(F)cc1Cl (racemic) [compound 18] |  |  |  |  | 91% | 100% | 100% | 100% |  |
| Cc1cccc(Cl)c1-n1c(C)nc(Cl)c1C(O)c1ccc(F)cc1Cl (stereo not shown) [compound 344] | 72* % | 99* % | 95* % | 54* % |  |  |  |  |  |
| Cc1nc(Br)c(C(O)c2c(F)cccc2F)n1-c1ccc(F)cc1Cl (stereo not shown) [compound 140] |  |  |  |  | 50% | 100% | 100% | 100% |  |
| COc1cc(F)c(C(O)c2cnc(C)n2-c2ccc(F)cc2F)c(F)c1 (racemic) [compound 257] |  |  |  |  | 0% | 92% | 24% | 0% |  |
| Cc1nc(Br)c(C(O)c2ccc(Cl)cc2)n1-c1ccc(F)cc1F (stereo not shown) [compound 380] |  |  |  |  |  |  |  |  | Test D rating (% disease control, wheat powdery mildew) [1, 7]: 0%; Test A rating (% disease control, wheat leaf rust) [2, 7]: 98%; Test B rating (% disease control, wheat leaf blotch) [3, 7]: 100%; Test C rating (% disease control, tomato Botrytis) [4, 7]: 100% |
| Cc1nc(Cl)c(C(O)c2ccc(F)cc2F)n1-c1ccc(F)cc1Cl (stereo not shown) [compound 58] |  |  |  |  | 72% | 100% | 100% | 100% |  |
| COc1ccc(C(O)c2c(Br)ncn2-c2c(F)cccc2F)c(Cl)c1 (stereo not drawn) [Compound 274, 4-bromo-1-(2,6-difluorophenyl)-α-(2-chloro-4-methoxyphenyl)-1H-imidazole-5-methanol] |  |  |  |  | 64% | 100% | 97% | 0% |  |
| Cc1nc(Cl)n(-c2c(F)cccc2F)c1C(O)c1c(F)cccc1F (racemic) [compound 24] | 91* % | 100* % | 100* % | 100* % |  |  |  |  |  |
| Cc1nc(Cl)n(-c2c(F)cccc2F)c1C(O)c1c(F)ccc(Br)c1F (racemic) [compound 25] | 0* % | 99* % | 100* % | 87* % |  |  |  |  |  |
| COc1cc(F)c(C(O)c2c(Cl)nc(C)n2-c2ccc(F)cc2F)c(F)c1 (racemic) [compound 269] | 0* % | 100* % | 96* % | 66* % |  |  |  |  |  |
| Cc1nc(Cl)c(C(O)c2c(F)cc(F)cc2F)n1-c1c(F)cccc1F (stereo not shown) [compound 100] | 82* % | 100* % | 100* % | 97* % |  |  |  |  |  |
| COc1ccc(C(O)c2c(Cl)nc(C)n2-c2c(F)cccc2F)c(Cl)c1 (stereo not shown) [compound 143] | 99* % | 100* % | 100* % | 99* % |  |  |  |  |  |
| COc1ccc(-n2c(Cl)nc(Cl)c2C(O)c2ccc(F)cc2Cl)c(F)c1 (stereo not shown) [compound 319] | 0* % | 100* % | 100* % | 99* % |  |  |  |  |  |
| COc1cc(F)c(C(O)c2c(Br)nc(C)n2-c2c(F)cccc2F)c(F)c1 (stereo not shown) [compound 147] | 0* % | 100* % | 100* % | 99* % |  |  |  |  |  |
| Cc1cc(F)ccc1C(O)c1c(C)nc(Cl)n1-c1c(F)cccc1Cl (stereo not shown) [compound 208] | 81* % | 100* % | 100* % | 99* % |  |  |  |  |  |
| COc1ccc(C(O)c2c(Cl)nc(Br)n2-c2ccc(F)cc2Cl)c(Cl)c1 (stereo not shown) [compound 357] | 98* % | 100* % | 100* % | 99* % |  |  |  |  |  |
| Cc1nc(Cl)c(C(O)c2ccc(F)cc2F)n1-c1c(F)cccc1Br (stereo not shown) [compound 316] | 95* % | 100* % | 100* % | 99* % |  |  |  |  |  |
| Cc1cc(F)ccc1C(O)c1c(Cl)nc(Cl)n1-c1ccc(Cl)cc1Cl (single isomer, unassigned) [compound 85] |  |  |  |  | 87% | 99% | 100% | 88% |  |
| Cc1nc(Br)c(C(O)c2ccc(F)cc2F)n1-c1c(F)cc(Cl)cc1F (stereo not shown) [compound 126] | 0* % | 96* % | 100* % | 0* % |  |  |  |  |  |
| OC(c1ccc(Cl)cc1)c1c(Cl)nc(Cl)n1-c1c(F)cc(F)cc1Br (stereo not shown) [compound 44] |  |  |  |  | 88% | 99% | 100% | 99% |  |

— US20130143929A1, “FUNGICIDAL IMIDAZOLES” (EI DU PONT DE NEMOURS AND COMPANY, priority 2010, published 2013)
